# Source: US5932466A, “Creatine amidinohydrolase gene, a novel recombinant DNA, and a process for producing creatine amidinohydrolase” (Kikkoman Corporation, priority 1994, dated 1999)
# Test system: Alcaligenes sp. KS-85 creatine amidinohydrolase, SEQ ID NO: 2 (recombinant, produced in E. coli)
# Assay: Km determination of creatine amidinohydrolase from Lineweaver-Burk plots
# Type: biochemical
# Conditions: urea formed quantified, 50 mM phosphate buffer pH 7.7, 37° C.
# Description: The measurement of enzyme activity was conducted under the following conditions. 1 U of enzyme activity is defined as the amount which causes formation of 1 μmol of urea per minute.
# 6.63 g of creatine is dissolved in 500 ml of 50 mM phosphate buffer, pH 7.7.
# 10 g of .rho.-dimethylaminobenzaldehyde is dissolved in 500 ml ethanol (guaranteed reagent) and then mixed with a mixture of 575 ml deionized water and 75 ml conc. hydrochloric acid.
# 1) 0.9 ml of Solution 1 is pre-incubated as the substrate at 37° C. for 5 minutes.
# 2) 0.1 ml enzyme solution (adjusted to about 1-2 U/ml) is mixed with the substrate and allowed to react at 37° C. for 10 minutes.
# 3) Then, 2 ml of Solution 2 is mixed with the reaction solution.
# 4) Then, the mixture is allowed to stand at 25° C. for 20 minutes, and the absorbance at 435 nm is determined (OD sample).
# 5) As the blank, 0.9 ml of Solution 1 is incubated at 37° C. for 10 minutes and then 2 ml of Solution 2 and 0.1 ml enzyme solution are mixed with Solution 1, and the mixture is allowed to stand at 25° C. for 20 minutes, and the absorbance at 435 nm is determined (OD blank).
# U/ml=ΔOD×18.06*×dilution degree
compound,measurement,value
CN(CC(=O)O)C(=N)N [creatine],Km,13 mM
